Assay results reported in patent US12338243B2, “P2X7 modulators” (JANSSEN PHARMACEUTICA NV, priority 2014, dated 2025).
Values joined by “and” are separate entries in the source; they are usually repeats but may differ in a detail not shown here. Equal entries are not always repeated.

Experiments:
[1] = Rat plasma radiometabolite analysis; assay type: in vivo; conditions: 30 min after radiotracer injection, n=2
Procedure: (§1) HPLC analysis was performed on a LaChrom Elite HPLC system (Hitachi, Armstadt, Germany) connected to a UV spectrometer set at 220 nm. For the analysis of radiolabeled compounds, the HPLC eluate, after passage through the UV detector, was led over a shielded 3-inch NaI(Tl) scintillation detector connected to a multichannel analyser (Gabi box, Raytest, Straubenhardt, Germany). The output signal was recorded and analysed using a GINA Star data acquisition system (Raytest, Straubenhardt, Germany). Radioactivity in samples of biodistribution studies, cell uptake experiments and radiometabolite analysis was quantified using an automated gamma counter equipped with a 3-inch NaI(Tl) well crystal coupled to a multichannel analyser (Wallac 2480 Wizard, Wallac, Turku, Finland). Results were corrected for background radiation, physical decay and counter dead time.
Radiometabolites of [^11C]55 in plasma of normal female Wistar rats (n=2) were quantified at 30 min after tracer injection. […] The fraction of more lipophilic radiometabolites eluting after the intact tracer was negligible (<1.5%).

[2] = Biodistribution studies of radiotracer in healthy female Wistar rats; assay type: in vivo; conditions: for % ID blood: blood mass assumed 7% of body mass; for SUV blood / % ID carcass / % ID cerebellum / SUV cerebellum / % ID cerebrum / SUV cortex / % ID heart / SUV hippocampus / % ID intestines / % ID kidneys / % ID liver / % ID lungs / SUV rest of cerebrum / % ID spleen + pancreas / % ID stomach / SUV striatum / % ID urine / SUV whole cerebrum: mean ± SD, n = 3
Procedure: as §1
Animals were housed in individually ventilated cages in a thermoregulated (˜22° C.), humidity-controlled facility under a 12 h/12 h light/dark cycle with access to food and water ad libitum. All animal experiments were conducted according to the Belgian code of practice for the care and use of animals, after approval from the KU Leuven University Ethics Committee for Animals.
The biodistribution studies were performed in healthy female Wistar rats (body weight, 185-220 g) at 2, 30 and 60 min after tracer injection (n=3/time point). […] The animals were sacrificed by decapitation at the indicated time points. Blood and major organs were collected in tared tubes and weighed. The radioactivity in the dissected organs and blood was counted using an automated gamma counter. For calculation of total blood radioactivity, blood mass was assumed to be 7% of the body mass.

C[C@H]1Cn2c(nnc2-c2cc(O[11CH3])ccn2)CN1C(=O)c1cccc(Cl)c1Cl [[^11C]55, (S)-(2,3-dichlorophenyl)(3-(4-[^11C]methoxypyridin-2-yl)-6-methyl-5,6-dihydro-[1,2,4]triazolo[4,3-a]pyrazin-7(8H)-yl)methanone]
recovered radioactivity in the plasma in the form of intact tracer [1]: 70±6%
% ID blood ([2]; 2 min after tracer injection): 10.0 % ID and 10.0 ± 2.4 % ID
SUV blood ([2]; 2 min after tracer injection): 1.42 ± 0.3
% ID blood ([2]; 30 min after tracer injection): 5.2 ± 0.6 % ID
SUV blood ([2]; 30 min after tracer injection): 0.74 ± 0.1
% ID blood ([2]; 60 min after tracer injection): 5.3 % ID and 5.3 ± 0.6 % ID
SUV blood ([2]; 60 min after tracer injection): 0.75 ± 0.1
% ID carcass ([2]; 2 min after tracer injection): 35.1 ± 4.1 % ID
% ID carcass ([2]; 30 min after tracer injection): 46.9 ± 0.5 % ID
% ID carcass ([2]; 60 min after tracer injection): 43.2 ± 5.3 % ID
% ID cerebellum ([2]; 2 min after tracer injection): 0.1 ± 0.0 % ID
SUV cerebellum ([2]; 2 min after tracer injection): 1.02 ± 0.1
% ID cerebellum ([2]; 30 min after tracer injection): 0.1 ± 0.0 % ID
SUV cerebellum ([2]; 30 min after tracer injection): 0.53 ± 0.0
% ID cerebellum ([2]; 60 min after tracer injection): 0.1 ± 0.0 % ID
SUV cerebellum ([2]; 60 min after tracer injection): 0.59 ± 0.1
% ID cerebrum ([2]; 2 min after tracer injection): 0.5 ± 0.0 % ID
% ID cerebrum ([2]; 30 min after tracer injection): 0.3 ± 0.0 % ID
% ID cerebrum ([2]; 60 min after tracer injection): 0.3 ± 0.1 % ID
SUV cortex ([2]; 2 min after tracer injection): 0.80 ± 0.2
SUV cortex ([2]; 30 min after tracer injection): 0.58 ± 0.1
SUV cortex ([2]; 60 min after tracer injection): 0.65 ± 0.1
% ID heart ([2]; 2 min after tracer injection): 1.3 ± 0.2 % ID
% ID heart ([2]; 30 min after tracer injection): 0.4 ± 0.0 % ID
% ID heart ([2]; 60 min after tracer injection): 0.4 ± 0.1 % ID
SUV hippocampus ([2]; 2 min after tracer injection): 0.74 ± 0.0
SUV hippocampus ([2]; 30 min after tracer injection): 0.43 ± 0.0
SUV hippocampus ([2]; 60 min after tracer injection): 0.52 ± 0.1
% ID intestines ([2]; 2 min after tracer injection): 14.0 ± 1.8 % ID
% ID intestines ([2]; 30 min after tracer injection): 23.8 ± 1.1 % ID
% ID intestines ([2]; 60 min after tracer injection): 26.7 ± 9.1 % ID
% ID kidneys ([2]; 2 min after tracer injection): 4.5 ± 0.8 % ID
% ID kidneys ([2]; 30 min after tracer injection): 1.9 ± 0.1 % ID
% ID kidneys ([2]; 60 min after tracer injection): 1.8 ± 0.2 % ID
injected dose retained in the liver and the intestines ([2]; liver and intestines, 60 min after tracer injection): 43.8%
% ID liver ([2]; 2 min after tracer injection): 34.8 ± 2.1 % ID
% ID liver ([2]; 30 min after tracer injection): 19.4 ± 0.5 % ID
% ID liver ([2]; 60 min after tracer injection): 17.1 ± 0.3 % ID
% ID lungs ([2]; 2 min after tracer injection): 2.1 ± 0.3 % ID
% ID lungs ([2]; 30 min after tracer injection): 1.0 ± 0.1 % ID
% ID lungs ([2]; 60 min after tracer injection): 1.1 ± 0.4 % ID
SUV rest of cerebrum ([2]; 2 min after tracer injection): 0.86 ± 0.0
SUV rest of cerebrum ([2]; 30 min after tracer injection): 0.46 ± 0.0
SUV rest of cerebrum ([2]; 60 min after tracer injection): 0.53 ± 0.1
% ID spleen + pancreas ([2]; 2 min after tracer injection): 1.4 ± 0.4 % ID
% ID spleen + pancreas ([2]; 30 min after tracer injection): 0.6 ± 0.1 % ID
% ID spleen + pancreas ([2]; 60 min after tracer injection): 0.6 ± 0.1 % ID
% ID stomach ([2]; 2 min after tracer injection): 1.7 ± 0.3 % ID
% ID stomach ([2]; 30 min after tracer injection): 2.1 ± 1.0 % ID
% ID stomach ([2]; 60 min after tracer injection): 5.1 ± 3.4 % ID
SUV striatum ([2]; 2 min after tracer injection): 0.78 ± 0.0
SUV striatum ([2]; 30 min after tracer injection): 0.45 ± 0.0
SUV striatum ([2]; 60 min after tracer injection): 0.50 ± 0.1
total initial brain uptake ([2]; total brain, 2 min after injection): 0.6%
total brain uptake ([2]; total brain, 60 min after tracer injection): 0.4%
% ID in urine and kidneys ([2]; urine and kidneys, 60 min after injection): 2.9 % ID
% ID urine ([2]; 2 min after tracer injection): 0.1 ± 0.1 % ID
% ID urine ([2]; 30 min after tracer injection): 0.9 ± 0.0 % ID
% ID urine ([2]; 60 min after tracer injection): 1.1 ± 0.5 % ID
SUV whole cerebrum ([2]; 2 min after tracer injection): 0.83 ± 0.0
SUV whole cerebrum ([2]; 30 min after tracer injection): 0.46 ± 0.0
SUV whole cerebrum ([2]; 60 min after tracer injection): 0.54 ± 0.1
